In patent US20140357579A1, “SYNTHETIC PEPTIDE AMIDES AND DIMERS THEREOF” (priority 2006, published 2014):

What was measured:
CYP1A = assay: Cytochrome P450 CYP1A inhibition, human liver microsomes (Cerep); conditions: 10 uM test compound, percent remaining CYP activity
CYP2C9 = CYP2C9 (Homo sapiens, UniProt P11712); assay: Cytochrome P450 CYP2C9 inhibition, human liver microsomes (Cerep); conditions: 10 uM test compound, percent remaining CYP activity
[1] = molecular target: T1, mouse kappa opioid receptor (mKOR) (Mus musculus, UniProt P33534); assay: Inhibition of forskolin-stimulated cAMP production in R1.G1 cells (TR-FRET cAMP immunoassay); format: cell-based; conditions: R1.G1 cells
T1 construct: a mouse thymoma cell line that expresses only the kappa-opioid receptor and no other opioid receptor subtype; host or cells: R1.G1 mouse thymoma cells

mice [2] = assay: Acetic acid-induced writhing assay in mice; format: in vivo; conditions: IRC mice, delivered subcutaneously
[3] = molecular target: T2, human kappa opioid receptor (hKOR) (Homo sapiens, UniProt P41145); assay: NFAT-luciferase reporter assay in HEK-293 cells transfected with human kappa opioid receptor and chimeric G-protein; format: cell-based; conditions: for hKOR Efficacy(%): percent maximal activation compared to full induction by known kappa agonists
T2 construct: expressed in transfected cells; host or cells: HEK-293 cells (ATCC), transient transfection with pcDNA3-hOPRK1

CYP2D6 = CYP2D6 (Homo sapiens, UniProt P10635); assay: Cytochrome P450 CYP2D6 inhibition, human liver microsomes (Cerep); conditions: 10 uM test compound, percent remaining CYP activity
CYP2C19 = CYP2C19 (Homo sapiens, UniProt P33261); assay: Cytochrome P450 CYP2C19 inhibition, human liver microsomes (Cerep); conditions: 10 uM test compound, percent remaining CYP activity
CYP3A4 = CYP3A4 (Homo sapiens, UniProt P08684); assay: Recombinant human cytochrome P450 CYP3A4 inhibition (Cerep); conditions: 10 uM test compound, percent remaining CYP activity
mice [4] = assay: Inhibition of locomotion in mice (sedation); conditions: delivered subcutaneously
human mu opioid receptor = human mu opioid receptor (Homo sapiens, UniProt P35372); assay: Similar assay for potency on the human mu opioid receptor; format: cell-based
Description: Synthetic peptide amides of the invention were tested in a similar assay for potency on the human mu opioid receptor.
The synthetic peptide amide (53) was tested in a similar assay for potency on the human mu opioid receptor.

T1 sequence (P33534 whole entry): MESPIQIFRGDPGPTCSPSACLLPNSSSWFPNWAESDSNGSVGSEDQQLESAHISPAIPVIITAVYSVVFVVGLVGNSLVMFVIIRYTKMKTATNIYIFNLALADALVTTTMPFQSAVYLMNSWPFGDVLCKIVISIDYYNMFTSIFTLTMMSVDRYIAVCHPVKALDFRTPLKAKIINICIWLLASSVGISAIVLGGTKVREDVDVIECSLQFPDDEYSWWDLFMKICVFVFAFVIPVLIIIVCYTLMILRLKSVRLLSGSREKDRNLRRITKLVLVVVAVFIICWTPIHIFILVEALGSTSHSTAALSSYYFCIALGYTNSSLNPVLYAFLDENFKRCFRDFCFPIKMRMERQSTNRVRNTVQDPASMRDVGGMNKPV
T2 sequence (P41145 whole entry): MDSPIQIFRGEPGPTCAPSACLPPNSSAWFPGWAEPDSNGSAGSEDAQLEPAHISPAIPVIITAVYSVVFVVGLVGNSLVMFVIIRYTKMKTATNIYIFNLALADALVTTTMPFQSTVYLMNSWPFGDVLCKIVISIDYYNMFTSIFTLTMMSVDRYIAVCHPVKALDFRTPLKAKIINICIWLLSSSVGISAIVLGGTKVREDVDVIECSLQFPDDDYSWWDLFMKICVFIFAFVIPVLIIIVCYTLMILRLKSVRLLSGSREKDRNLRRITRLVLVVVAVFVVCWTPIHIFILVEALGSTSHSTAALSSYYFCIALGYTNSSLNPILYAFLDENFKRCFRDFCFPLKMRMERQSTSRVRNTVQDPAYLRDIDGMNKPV
CYP2D6, sequence (P10635 whole entry): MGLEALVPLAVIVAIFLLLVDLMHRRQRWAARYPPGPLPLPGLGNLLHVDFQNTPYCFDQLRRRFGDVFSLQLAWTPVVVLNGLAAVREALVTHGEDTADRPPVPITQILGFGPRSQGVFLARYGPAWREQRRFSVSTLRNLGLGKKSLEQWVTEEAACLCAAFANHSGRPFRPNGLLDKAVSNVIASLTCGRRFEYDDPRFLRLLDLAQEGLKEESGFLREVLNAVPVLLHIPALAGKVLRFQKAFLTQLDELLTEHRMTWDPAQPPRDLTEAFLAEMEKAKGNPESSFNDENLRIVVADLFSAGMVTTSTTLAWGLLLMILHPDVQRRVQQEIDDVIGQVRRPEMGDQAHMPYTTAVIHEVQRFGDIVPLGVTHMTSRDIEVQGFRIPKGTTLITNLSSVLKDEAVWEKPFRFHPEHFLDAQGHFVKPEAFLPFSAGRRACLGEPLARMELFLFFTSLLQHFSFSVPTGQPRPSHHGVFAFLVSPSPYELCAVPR
CYP2C19, sequence (P33261 whole entry): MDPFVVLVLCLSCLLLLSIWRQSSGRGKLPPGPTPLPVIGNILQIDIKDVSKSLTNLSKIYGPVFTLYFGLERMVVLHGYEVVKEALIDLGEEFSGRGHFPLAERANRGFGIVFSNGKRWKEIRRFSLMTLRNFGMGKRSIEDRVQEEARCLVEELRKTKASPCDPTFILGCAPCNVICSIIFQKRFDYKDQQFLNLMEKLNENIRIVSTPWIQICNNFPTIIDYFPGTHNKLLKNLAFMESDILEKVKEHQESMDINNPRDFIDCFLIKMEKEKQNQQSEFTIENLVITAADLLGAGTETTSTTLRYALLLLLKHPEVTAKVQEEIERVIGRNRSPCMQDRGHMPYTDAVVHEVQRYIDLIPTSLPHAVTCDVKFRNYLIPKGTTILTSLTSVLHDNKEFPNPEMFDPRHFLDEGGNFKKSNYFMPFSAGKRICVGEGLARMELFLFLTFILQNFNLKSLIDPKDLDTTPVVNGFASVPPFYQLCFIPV
CYP2C9, sequence (P11712 whole entry): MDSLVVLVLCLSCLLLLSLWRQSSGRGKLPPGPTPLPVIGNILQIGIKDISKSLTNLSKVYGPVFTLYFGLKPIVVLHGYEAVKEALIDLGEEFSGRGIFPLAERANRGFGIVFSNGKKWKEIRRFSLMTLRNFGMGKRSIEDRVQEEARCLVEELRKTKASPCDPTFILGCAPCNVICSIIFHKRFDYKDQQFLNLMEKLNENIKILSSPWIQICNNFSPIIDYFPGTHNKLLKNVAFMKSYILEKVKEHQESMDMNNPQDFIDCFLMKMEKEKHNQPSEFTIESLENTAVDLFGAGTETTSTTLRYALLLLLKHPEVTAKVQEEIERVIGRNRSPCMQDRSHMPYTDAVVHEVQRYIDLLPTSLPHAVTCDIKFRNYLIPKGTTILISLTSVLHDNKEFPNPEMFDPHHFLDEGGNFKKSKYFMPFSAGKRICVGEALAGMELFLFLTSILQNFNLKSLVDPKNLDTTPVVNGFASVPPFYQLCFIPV
CYP3A4, sequence (P08684 whole entry): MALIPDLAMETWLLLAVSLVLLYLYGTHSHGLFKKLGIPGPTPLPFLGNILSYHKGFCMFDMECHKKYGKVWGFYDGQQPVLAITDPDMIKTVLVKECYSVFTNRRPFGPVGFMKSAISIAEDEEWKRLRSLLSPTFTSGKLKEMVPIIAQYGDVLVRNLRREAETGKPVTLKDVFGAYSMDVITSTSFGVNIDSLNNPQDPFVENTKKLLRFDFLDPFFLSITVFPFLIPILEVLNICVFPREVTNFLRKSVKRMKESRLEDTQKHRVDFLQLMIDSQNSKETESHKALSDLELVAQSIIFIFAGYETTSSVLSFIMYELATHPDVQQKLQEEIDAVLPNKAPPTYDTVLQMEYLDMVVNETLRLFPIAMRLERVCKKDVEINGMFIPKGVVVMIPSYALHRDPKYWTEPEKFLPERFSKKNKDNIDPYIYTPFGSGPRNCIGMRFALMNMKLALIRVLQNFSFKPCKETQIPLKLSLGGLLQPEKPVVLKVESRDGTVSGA
human mu opioid receptor, sequence (P35372 whole entry): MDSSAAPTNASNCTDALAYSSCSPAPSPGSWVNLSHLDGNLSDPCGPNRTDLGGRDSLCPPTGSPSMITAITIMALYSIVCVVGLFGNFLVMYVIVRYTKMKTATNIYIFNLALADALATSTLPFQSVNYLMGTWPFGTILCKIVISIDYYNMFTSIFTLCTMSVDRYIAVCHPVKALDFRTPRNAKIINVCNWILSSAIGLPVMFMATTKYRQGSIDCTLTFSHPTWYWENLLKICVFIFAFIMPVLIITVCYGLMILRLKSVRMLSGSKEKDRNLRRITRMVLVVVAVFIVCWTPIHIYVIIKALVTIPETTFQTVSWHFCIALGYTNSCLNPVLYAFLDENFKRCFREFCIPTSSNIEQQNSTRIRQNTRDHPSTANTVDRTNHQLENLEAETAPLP

Row | SMILES | Percent Activity of CYP1A (CYP1A; Expt 1) [%] | Percent Activity of CYP1A (CYP1A; Expt 2) [%] | Percent Activity of CYP2C9 (CYP2C9; Expt 1) [%] | Percent Activity of CYP2C9 (CYP2C9; Expt 2) [%] | mKOR Efficacy(%) [1] [%] | ED50 in the acetic acid-induced writhing assay (mice [2]) [mg/kg] | hKOR Efficacy(%) [3] [%] | EC50 ([3]; transfected HEK-293 cells, luciferase reporter, read-out: hKOR EC50) [nM] | Percent Activity of CYP2D6 (CYP2D6; Expt 1) [%] | Percent Activity of CYP2D6 (CYP2D6; Expt 2) [%] | Percent Activity of CYP2C19 (CYP2C19; Expt 1) [%] | Percent Activity of CYP2C19 (CYP2C19; Expt 2) [%] | Percent Activity of CYP3A4 (CYP3A4; Expt 1) [%] | Percent Activity of CYP3A4 (CYP3A4; Expt 2) [%] | ED50 in the inhibition of locomotion assay (mice [4]) [mg/kg] | EC50 (human mu opioid receptor) [nM]
1 | CC(C)C[C@@H](NC(=O)[C@@H](Cc1ccccc1)NC(=O)[C@H](N)Cc1ccccc1)C(=O)N[C@H](CCCN)C(=O)N1CCCN(C2=NCCN2)CC1 [Compound 17, D-Phe-D-Phe-D-Leu-D-Orn-[4-(4,5-dihydro-1H-imidazol-2-yl)homopiperazine amide]] | 97.1 | 95.8 | 99.2 | 98.2 | 99 | 0.074 | 90 | 0.12 | 98.4 | 98.2 | 94.1 | 97.8 | 94.7 | 95.9 | 3.172 | 
2 | CC(C)C[C@@H](NC(=O)[C@@H](Cc1ccccc1)NC(=O)[C@H](N)Cc1ccccc1)C(=O)N[C@H](CCCN)C(=O)N1CCOC(C(=O)O)C1 (stereo partly drawn) [Compound 53, D-Phe-D-Phe-D-Leu-D-Orn-[R/S-2-carboxymorpholine]-OH] |  |  |  |  | 100 |  | 100 |  |  |  |  |  |  |  |  | ≥ 1000
3 | CC(C)C[C@@H](NC(=O)[C@@H](Cc1ccccc1)NC(=O)[C@H](N)Cc1ccccc1)C(=O)N[C@H](CCCCN)C(=O)NCC1OCCO1 [Compound 25] |  |  |  |  | 85 |  | 98 |  |  |  |  |  |  |  |  | 
